Assay results taken from PubChem BioAssay (NCI).
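48-hour exposure; five concentrations; linearly interpolated endpoints. GI50 marks 50% less growth. TGI: total growth inhibition.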

Tests used:
Assay in all cases: NCI tumour cell line growth inhibition, 48 h
MOLT-4 leukemia = system: MOLT-4 leukemia
HOP-92 NSCLC = system: HOP-92 NSCLC
LOX IMVI melanoma = system: LOX IMVI melanoma
OVCAR-8 ovarian = system: OVCAR-8 ovarian
CCRF-CEM leukemia = system: CCRF-CEM leukemia
OVCAR-4 ovarian = system: OVCAR-4 ovarian
SK-OV-3 ovarian = system: SK-OV-3 ovarian
HT29 colon = system: HT29 colon
SF-295 CNS = system: SF-295 CNS
SNB-75 CNS = system: SNB-75 CNS
HCT-15 colon = system: HCT-15 colon
SF-268 CNS = system: SF-268 CNS
NCI-H23 lung = system: NCI-H23 lung
NCI-H226 lung = system: NCI-H226 lung
T-47D breast = system: T-47D breast
RPMI-8226 leukemia = system: RPMI-8226 leukemia
SNB-19 CNS = system: SNB-19 CNS
UACC-257 melanoma = system: UACC-257 melanoma
NCI-H460 lung = system: NCI-H460 lung
SF-539 CNS = system: SF-539 CNS
UO-31 renal = system: UO-31 renal
NCI-H522 lung = system: NCI-H522 lung
TK-10 renal = system: TK-10 renal
ACHN renal = system: ACHN renal
KM12 colon = system: KM12 colon
A498 renal = system: A498 renal
HCC-2998 colon = system: HCC-2998 colon
PC-3 prostate = system: PC-3 prostate
RXF 393 renal = system: RXF 393 renal
BT-549 breast = system: BT-549 breast
SR leukemia = system: SR leukemia
SN12C renal = system: SN12C renal
A549 NSCLC = system: A549 NSCLC
COLO 205 colon = system: COLO 205 colon
IGROV1 ovarian = system: IGROV1 ovarian
OVCAR-3 ovarian = system: OVCAR-3 ovarian
SK-MEL-5 melanoma = system: SK-MEL-5 melanoma
HS 578T breast = system: HS 578T breast
SK-MEL-28 melanoma = system: SK-MEL-28 melanoma
786-0 renal = system: 786-0 renal
HOP-62 NSCLC = system: HOP-62 NSCLC
NCI/ADR-RES ovarian = system: NCI/ADR-RES ovarian
MCF7 breast = system: MCF7 breast
MDA-MB-435 = system: MDA-MB-435
M14 melanoma = system: M14 melanoma
MALME-3M melanoma = system: MALME-3M melanoma
HCT-116 colon = system: HCT-116 colon
K-562 leukemia = system: K-562 leukemia
UACC-62 melanoma = system: UACC-62 melanoma
MDA-MB-231 breast = system: MDA-MB-231 breast
OVCAR-5 ovarian = system: OVCAR-5 ovarian
HL-60(TB) leukemia = system: HL-60(TB) leukemia
DU-145 prostate = system: DU-145 prostate
SW-620 colon = system: SW-620 colon
U251 CNS = system: U251 CNS
SK-MEL-2 melanoma = system: SK-MEL-2 melanoma
CAKI-1 renal = system: CAKI-1 renal

## COc1cc(OC)c(/C=C/c2cc[n+](C)c3ccccc23)c(OC)c1
MOLT-4 leukemia
  GI50: 3.19 µM
  TGI: 33.9 µM
HOP-92 NSCLC
  GI50: 1.42 µM
  TGI: 4.7 µM
LOX IMVI melanoma
  GI50: 1.29 µM
  TGI: 3.15 µM
OVCAR-8 ovarian
  GI50: 1.62 µM
  TGI: 10.2 µM
CCRF-CEM leukemia
  GI50: 2.71 µM
  TGI: > 100 µM
OVCAR-4 ovarian
  GI50: 2.51 µM
  TGI: 23 µM
SK-OV-3 ovarian
  GI50: 3.32 µM
  TGI: 17.5 µM
HT29 colon
  GI50: 1.94 µM
  TGI: 7.28 µM
SF-295 CNS
  GI50: 0.702 µM
  TGI: 6.48 µM
SNB-75 CNS
  GI50: 0.932 µM
  TGI: 11.2 µM
HCT-15 colon
  GI50: 23.3 µM
  TGI: > 100 µM
SF-268 CNS
  GI50: 0.691 µM
  TGI: 12.8 µM
NCI-H23 lung
  GI50: 1.74 µM
  TGI: 17.3 µM
NCI-H226 lung
  GI50: 1.99 µM
  TGI: 17.3 µM
T-47D breast
  GI50: 1.72 µM
  TGI: 33.7 µM
RPMI-8226 leukemia
  GI50: 0.648 µM
  TGI: 11.6 µM
SNB-19 CNS
  GI50: 0.795 µM
  TGI: 15.4 µM
UACC-257 melanoma
  GI50: 1.86 µM
  TGI: 5.98 µM
NCI-H460 lung
  GI50: 0.98 µM
  TGI: 5.85 µM
SF-539 CNS
  GI50: 2.14 µM
  TGI: 10.9 µM
UO-31 renal
  GI50: 17.3 µM
  TGI: > 100 µM
NCI-H522 lung
  GI50: 1.61 µM
  TGI: 6.34 µM
TK-10 renal
  GI50: 3.54 µM
  TGI: 18.1 µM
ACHN renal
  GI50: 13.5 µM
  TGI: > 100 µM
KM12 colon
  GI50: 1.41 µM
  TGI: 3.95 µM
A498 renal
  GI50: 1.24 µM
  TGI: 6.04 µM
HCC-2998 colon
  GI50: 2.46 µM
  TGI: 13.9 µM
PC-3 prostate
  GI50: 1.68 µM
  TGI: 12.6 µM
RXF 393 renal
  GI50: 2.66 µM
  TGI: 19.2 µM
BT-549 breast
  GI50: 1.79 µM
  TGI: 13.6 µM
SR leukemia
  GI50: 1.92 µM
  TGI: > 100 µM
SN12C renal
  GI50: 1.05 µM
  TGI: 13 µM
A549 NSCLC
  GI50: 1.8 µM
  TGI: 54.6 µM
COLO 205 colon
  GI50: 1.23 µM
  TGI: 2.9 µM
IGROV1 ovarian
  GI50: 3.62 µM
  TGI: 25.9 µM
OVCAR-3 ovarian
  GI50: 1.68 µM
  TGI: 7.35 µM
SK-MEL-5 melanoma
  GI50: 0.928 µM
  TGI: 2.39 µM
HS 578T breast
  GI50: 1.48 µM
  TGI: 12.4 µM
SK-MEL-28 melanoma
  GI50: 2.3 µM
  TGI: 9.77 µM
786-0 renal
  GI50: 4.4 µM
  TGI: 22.3 µM
HOP-62 NSCLC
  GI50: 3.17 µM
  TGI: 20.8 µM
NCI/ADR-RES ovarian
  GI50: > 100 µM
  TGI: > 100 µM
MCF7 breast
  GI50: 2.7 µM
  TGI: > 100 µM
MDA-MB-435
  GI50: 1.83 µM
  TGI: 7.37 µM
M14 melanoma
  GI50: 2.88 µM
  TGI: 15.8 µM
MALME-3M melanoma
  GI50: 1.87 µM
  TGI: 8.04 µM
HCT-116 colon
  GI50: 1.27 µM
  TGI: 33.7 µM
K-562 leukemia
  GI50: 1 µM
  TGI: > 100 µM
UACC-62 melanoma
  GI50: 1.58 µM
  TGI: 5.66 µM
MDA-MB-231 breast
  GI50: 2.77 µM
  TGI: 12.8 µM
OVCAR-5 ovarian
  GI50: 3.66 µM
  TGI: 38.7 µM
HL-60(TB) leukemia
  GI50: 1.33 µM
  TGI: 8.58 µM
DU-145 prostate
  GI50: 2.47 µM
  TGI: 15.5 µM
SW-620 colon
  GI50: 2.56 µM
  TGI: 16.9 µM
U251 CNS
  GI50: 0.536 µM
  TGI: 11.7 µM
SK-MEL-2 melanoma
  GI50: 2.66 µM
  TGI: 6.32 µM
CAKI-1 renal
  GI50: 18.3 µM
  TGI: > 100 µM
